According to patent publication US20240206462A1, “ESSENTIAL OIL-BASED AGRICULTURAL COMPOSITION AND METHOD FOR CONTROLLING A PEST USING THE SAME” (MOMENTIVE PERFORMANCE MATERIALS INC., priority 2021, published 2024):

Test system: tomato grey mold (Botrytis cinerea)
Experiment: Plate method growth inhibition of fungal plant pathogen on PDA medium
Type: cell-based
Details: concluded from geraniol-based compositions

Compound: CC(C)=CCCC(C)=CCO [geraniol, 3,7-dimethylocta-2,6-dien-1-ol]
- inhibition activity on Botrytis genus, especially Botrytis cinerea: high inhibition activity
